Laboratory results: patent publication US12600696B2 (XENIOPRO GMBH, priority 2017, dated 2026)

System: Notch signaling (hNotch1ΔE, human Notch1 receptor) in HeLa cells
Assay: Notch reporter assay (luciferase luminescence readout in transfected HeLa cells)
Format: cell-based
Conditions: 10 μM, 20 hours, relative to DMSO baseline level of 1.0
Procedure: An according Notch-reporter assay, i.e. a luciferase-based luminescence readout, was used here to quantify the ability of the claimed small molecules to augment Notch signaling in a cellular system. For this purpose, HeLa cells, obtainable from the American Type Culture Collection (ATCC) under the accession number ATCC-CCL-2, were transiently transfected for 24 hours using FuGENE® HD (Promega, #E2311) as transfection reagent with expression vectors of a membrane-tethered form of the constitutively active intracellular domain of the human Notch1 receptor (hNotch1ΔE) to activate the signaling cascade (BPS Bioscience, human analogue to Notch Pathway Reporter Kit #60509 component C), a Firefly luciferase being expressed under the control of a Notch-responsive promoter to monitor Notch signaling (BPS Bioscience, Notch Pathway Reporter Kit #60509, CSL luciferase reporter vector from component A not premixed with Renilla luciferase vector), and a Renilla luciferase being constitutively expressed in a Notch signaling independent manner to include a measure for the cell number per sample (Promega, pRL-SV40, #E2231). HeLa cells were cultivated according to the protocol of the provider in DMEM medium (Fisherscientific, #11584456) containing 10% fetal bovine serum (Fisherscientific, #15517589). The transfection was carried out in a 100 mm-culture dish (StarLab, #CC7682-3394) with cells being properly attached to the plate at a cell confluency of 80-90% in a total volume of 7 mL culture medium. Per dish to be transfected, a transfection mix was prepared by adding to 238 μL Opti-MEM (Fisherscientific, #10149832) 40 μL of the hNotch1ΔE expression vector (100 ng/μL), 80 μL of the CSL luciferase reporter vector (40 ng/μL), 4 μL of the pRL-SV40-Renilla luciferase vector (10 ng/μL), and in the last step 18.1 μL of FuGENE® HD. After addition of FuGENE® HD the transfection mix was let stand for 15 min at room temperature and hereafter equally distributed into the culture dish. Subsequently, i.e. after 24 hours of transfection, the transfected cells (10.000 cells per well) were incubated with the test-compounds at a final concentration of 10 μM (diluted from 10 mM stock-solutions in DMSO to a final DMSO concentration of 0.1% v/v) or with the empty carrier DMSO at 0.1% v/v as control for 20 hours in 96-well plates suitable for luminescence readouts (CORNING, #3610). Hereafter, the cells were lysed with 30 μL per well of Passive Lysis Buffer (Promega, #E194A, component of Dual-Luciferase® Reporter Assay System, #E1910) and the Firefly as well as Renilla luciferase values were measured with a luminescence reader with applying 15 μL per well each of the corresponding enzyme substrates needed to create the luminescence signals (Promega, Dual-Luciferase® Reporter Assay System, #E1910).
The suitability of the assays for monitoring Notch signaling was controlled by additionally including a generally accepted commercial Notch inhibitor, i.e. DAPT, as negative control, as well as the reported Notch enhancer resveratrol (RES) as positive control (Pinchot et al., Cancer 2011, 117, 1386-1398; Truong et al., Ann. Surg. Oncol. 2011, 18, 1506-1511; Yu et al., Mol. Cancer Ther. 2013, 12, 1276-1287). Both control compounds were likewise tested at 10 μM.
Per single experiment the measurement was performed in six replicates per compound. For every compound, this experiment was repeated in three or more independent replicates. The values of the Notch-reporter luciferase were normalized by division through the corresponding individual Notch-independent Renilla values in order to eliminate the impact of variation in the absolute cell-numbers in between the samples. For every individual plate, a second normalization was performed against the equally weighted arithmetic mean (here abbreviated as AVE) of the six associated Renilla-normalized DMSO-control values within a single experiment in order to obtain the relative values to a baseline level of 1.0. […]

Structure (SMILES)	AVEw, weighted arithmetic mean of double-normalized Notch-reporter luciferase luminescence values (Activity Range)
C[C@H](NC(=O)Cc1cc(F)cc(F)c1)C(=O)N[C@H](C(=O)OC(C)(C)C)c1ccccc1 [DAPT, reference compound]	0.1 ± 0.0

Same assay, conditions: Homo sapiens, 20 hours, relative to DMSO baseline level of 1.0, read-out: AVEw, weighted arithmetic mean of double-normalized Notch-reporter luciferase luminescence values (Activity Range)

Structure (SMILES)	fold induction at 10 µM
CCCCCc1ccc(Oc2ccc(C(=O)OC)cc2)cc1 [Compound 027, methyl 4-(4-pentylphenoxy)benzoate]	1.7 to 2
O=C(O)c1ccc(Oc2ccc(C34CC5CC(CC(C5)C3)C4)cc2)c(F)c1 [Compound 363, 4-(4-((3r,5r,7r)-adamantan-1-yl)phenoxy)-3-fluorobenzoic acid]	1.2 to 1.3
CCOC(=O)c1ccc(Oc2ccc(CC)cc2)nc1 [Compound 117, Ethyl 6-(4-Ethylphenoxy)nicotinate]	1.4 to 1.7
CC(C)c1ccc(Oc2ccc(C(=O)O)cc2)cc1 [Compound 007, 4-(4-isopropylphenoxy)benzoic acid]	1.2 to 1.3
CCCCCc1ccc(Oc2ccc(C(=O)OCC)cc2F)cc1 [Compound 396, ethyl 3-fluoro-4-(4-pentylphenoxy)benzoate]	1.2 to 1.3
CN(C)C(=O)c1ccc(Oc2ccc(C3CCCCC3)cc2)cc1 [Compound 234, 4-(4-cyclohexylphenoxy)-N,N-dimethylbenzamide]	1.1 to 1.2
CCOC(=O)c1ccc(Oc2ccc(C(C)C)cc2)nc1 [Compound 122, ethyl 6-(4-isopropylphenoxy)nicotinate]	1.3 to 1.4
O=C(O)c1ccc(Oc2ccc(C3(C(F)(F)F)CC3)cc2)cc1 [Compound 703, 4-(4-(1-(Trifluoromethyl)cyclopropyl)phenoxy)benzoic acid]	1.1 to 1.2
CCCc1ccc(Oc2ccc(C(=O)O)cn2)cc1 [Compound 071, 6-(4-Propylphenoxy)nicotinic acid]	1.4 to 1.7
CCCCCc1ccc(Oc2ccc(C(=O)O)cc2)cc1 [Compound 005, 4-(4-Pentylphenoxy)benzoic acid]	1.7 to 2
CCC(C)(C)c1ccc(Oc2ncc(C(=O)OC)cc2F)cc1 [Compound 451, Methyl 5-fluoro-6-(4-(tert-pentyl)phenoxy)nicotinate]	1.1 to 1.2
CNC(=O)c1ccc(Oc2ccc(C)cc2)cc1 [Compound 189, N-methyl-4-(p-tolyloxy)benzamide]	1.1 to 1.2
CCc1ccc(Oc2ccc(C(=O)NC)cn2)cc1 [Compound 292, 6-(4-ethylphenoxy)-N-mtehylnicotinamide]	1.3 to 1.4
CCCc1ccc(Oc2ccc(C(=O)OCC)cc2)cc1 [Compound 050, ethyl 4-(4-propylphenoxy)benzoate]	1.4 to 1.7
CNC(=O)c1ccc(Oc2ccc(C)cc2)nc1 [Compound 291, N-methyl-6-(p-tolyloxy)nicotinamide]	1.4 to 1.7
O=C(O)c1ccc(Oc2ccc(C3C[C@@H]4CC[C@H]3C4)cc2)cc1 (stereo partly drawn) [Compound 019, 4-(4-((1S,4R)-bicyclo[2.2.1]heptan-2-yl)phenoxy)benzoic acid]	1.2 to 1.3
CCCCc1ccc(Oc2ccc(C(=O)O)cc2)cc1 [Compound 004, 4-(4-butylphenoxy)benzoic acid]	1.4 to 1.7
CCCc1ccc(Oc2ccc(C(=O)O)cc2F)cc1 [Compound 343, 3-fluoro-4-(4-propylphenoxy)benzoic acid]	1.1 to 1.2

Structure (SMILES)	fold induction at 10 µM
CCCc1ccc(Oc2ccc(C(=O)O)cc2)cc1 [Compound 003, 4-(4-propylphenoxy)benzoic acid]	1.7 to 2
CCCCc1ccc(Oc2ccc(C(=O)OC)cc2)cc1 [Compound 026, methyl 4-(4-butylphenoxy)benzoate]	1.4 to 1.7
CCCCCc1ccc(Oc2ccc(C(=O)OCC)cc2)cc1 [Compound 052, ethyl 4-(4-pentylphenoxy)benzoate]	1.4 to 1.7
COC(=O)c1ccc(Oc2ccc(C)cc2)nc1 [Compound 091, methyl 6-(p-tolyloxy)nicotinate]	1.2 to 1.3
CCCc1ccc(Oc2ccc(C(=O)OC)cc2)cc1 [Compound 025, methyl 4-(4-propylphenoxy)benzoate]	1.2 to 1.3
CCc1ccc(Oc2ccc(C(N)=O)cn2)cc1 [Compound 242, 6-(4-ethylphenoxy)nicotinamide]	1.2 to 1.3
O=C(O)c1ccc(Oc2ccc(C3(C(F)(F)F)CC3)cc2)nc1 [Compound 730, 6-(4-(1-(Trifluoromethyl)cyclopropyl)phenoxy)nicotinic acid]	1.1 to 1.2
CCCc1ccc(Oc2ccc(C(=O)OCC)cc2F)cc1 [Compound 394, ethyl 3-fluoro-4-(4-propylphenoxy)benzoate]	1.4 to 1.7
CC(C)c1ccc(Oc2ccc(C(N)=O)cn2)cc1 [Compound 247, 6-(4-isopropylphenoxy)nicotinamide]	1.2 to 1.3
CNC(=O)c1ccc(Oc2ccc(C(C)C)cc2)nc1 [Compound 297, 6-(4-Isopropylphenoxy)-N-methylnicotinamide]	1.4 to 1.7
CCCCCc1ccc(Oc2ccc(C(=O)OCC)cn2)cc1 [Compound 120, ethyl 6-(4-pentylphenoxy)nicotinate]	1.4 to 1.7
CCCCc1ccc(Oc2ccc(C(=O)OCC)cc2)cc1 [Compound 051, Ethyl 4-(4-butylphenoxy)benzoate]	1.7 to 2
Cc1ccc(Oc2ccc(C(N)=O)cn2)cc1 [Compound 241, 6-(p-Tolyloxy)nicotinamide]	1.2 to 1.3
CNC(=O)c1ccc(Oc2ccc(C(C)C)cc2)cc1 [Compound 195, 4-(4-Isopropylphenoxy)-N-methylbenzamide]	1.2 to 1.3
CCCCc1ccc(Oc2ccc(C(=O)O)cc2F)cc1 [Compound 344]	1.3 to 1.4
CCCc1ccc(Oc2ccc(C(=O)OCC)cn2)cc1 [Compound 118, ethyl 6-(4-propylphenoxy)nicotinate]	1.1 to 1.2
COC(=O)c1ccc(Oc2ccc(C34CC5CC(CC(C5)C3)C4)cc2)nc1 [Compound 114, Methyl 6-(4-(adamantan-1-yl)phenoxy)nicotinate]	1.7 to 2
